Source: patent publication US20150266850A1 (E.I.DU PONT DE NEMOURS AND COMPANY, priority 2012, published 2015)
Marks after values point to notes of the source that are not given here.

Columns and labels:
Type in all cases: in vivo
Conditions in all cases: 100 = 100% disease control
Septoria nodorum = test: Test D: wheat glume blotch, preventive spray on wheat seedlings, visual disease rating
Text: (§1) General protocol for preparing test suspensions for Tests A-E: the test compounds were first dissolved in acetone in an amount equal to 11% of the final volume and then suspended at the desired concentration (in ppm) in acetone and purified water (50/50 mix by volume) containing 250 ppm of the surfactant Trem® 014 (polyhydric alcohol esters). The resulting test suspensions were then used in Tests A-E. Spraying a 200 ppm test suspension to the point of run-off on the test plants was the equivalent of a rate of 800 g/ha.
The test suspension was sprayed to the point of run-off on wheat seedlings. The following day the seedlings were inoculated with a spore suspension of Septoria nodorum (the causal agent of wheat glume blotch) and incubated in a saturated atmosphere at 20° C. for 48 h, and then moved to a growth chamber at 20° C. for 7 days, after which time disease ratings were visually made.
(§2) Results for Tests A-E are given in Table A. In the Table, a rating of 100 indicates 100% disease control and a rating of 0 indicates no disease control (relative to the controls). A dash (-) indicates no test results. All results are for 200 ppm except where followed by an “*”, which indicates 40 ppm or “**”, which indicates 50 ppm.

[1] = test system: Puccinia recondita f sp. tritici; test: Test B: wheat leaf rust, preventive spray on wheat seedlings, visual disease rating
Text: as §1
The test suspension was sprayed to the point of run-off on wheat seedlings. The following day the seedlings were inoculated with a spore suspension of Puccinia recondita f sp. tritici (the causal agent of wheat leaf rust) and incubated in a saturated atmosphere at 20° C. for 24 h, and then moved to a growth chamber at 20° C. for 7 days, after which time disease ratings were visually made.
as §2

Septoria tritici = test: Test C: wheat leaf blotch, preventive spray on wheat seedlings, visual disease rating
Text: as §1
The test suspension was sprayed to the point of run-off on wheat seedlings. The following day the seedlings were inoculated with a spore suspension of Septoria tritici (the causal agent of wheat leaf blotch) and incubated in a saturated atmosphere at 24° C. for 48 h, and then moved to a growth chamber at 20° C. for 19 days, after which time disease ratings were visually made.
as §2

Botrytis cinerea = test: Test E: tomato botrytis, preventive spray on tomato seedlings, visual disease rating
Text: as §1
The test suspension was sprayed to the point of run-off on tomato seedlings. The following day the seedlings were inoculated with a spore suspension of Botrytis cinerea (the causal agent of tomato botrytis) and incubated in saturated atmosphere at 20° C. for 48 h, and then moved to a growth chamber at 27° C. for 3 additional days, after which time disease ratings were visually made.
as §2

[2] = test system: Erysiphe graminis f. sp. tritici; test: Test A: wheat powdery mildew, preventive spray on wheat seedlings, visual disease rating
Text: as §1
The test suspension was sprayed to the point of run-off on wheat seedlings. The following day the seedlings were inoculated with a spore dust of Erysiphe graminis f. sp. tritici, (the causal agent of wheat powdery mildew) and incubated in a growth chamber at 20° C. for 8 days, after which time disease ratings were visually made.
as §2

Row | Structure (SMILES) | Test D disease control rating (Septoria nodorum; 200 ppm) [%] | Test B disease control rating ([1]; 200 ppm) [%] | Test C disease control rating (Septoria tritici; 200 ppm) [%] | Test E disease control rating (Botrytis cinerea; 200 ppm) [%] | Test A disease control rating ([2]; 200 ppm) [%] | Test D disease control rating (Septoria nodorum; 40 ppm (*)) | Test B disease control rating ([1]; 40 ppm (*)) | Test C disease control rating (Septoria tritici; 40 ppm (*)) | Test E disease control rating (Botrytis cinerea; 40 ppm (*)) | Test A disease control rating ([2]; 40 ppm (*))
1 | COC(=O)NCc1cc(-n2ccc(-c3ccc(OC)cc3F)n2)ccc1C [Cmpd 9] | 100 | 100 | 99 | 87 | 100 |  |  |  |  | 
2 | COC(=O)NCc1cc(-n2ccc(-c3ccc(C)cc3OC)n2)ccc1C [Cmpd 12] | 100 | 100 | 97 | 95 | 100 |  |  |  |  | 
3 | COC(=O)NCc1cc(-n2ccc(-c3ccc(OC)cc3Cl)n2)ccc1C [Cmpd 13] | 100 | 100 | 100 | 99 | 100 |  |  |  |  | 
4 | COC(=O)NCc1cc(-n2ccc(-c3ccc(F)cc3OC)n2)ccc1C [Cmpd 14] | 100 | 100 | 100 | 97 | 100 |  |  |  |  | 
5 | COC(=O)NCc1cc(-c2ccn(-c3ccc(SC)cc3OC)n2)ccc1C [Cmpd 15] | 100 | 100 | 77 | 64 | 96 |  |  |  |  | 
6 | COC(=O)NCc1cc(-c2ccn(-c3ccc(OC)cc3SC)n2)ccc1C [Cmpd 16] | 100 | 100 | 85 | 97 | 97 |  |  |  |  | 
7 | COC(=O)NCc1cc(-c2ccn(-c3ccc(OC)cc3C#N)n2)ccc1C [Cmpd 21] | 100 | 100 | 98 | 66 | 96 |  |  |  |  | 
8 | COC(=O)NCc1cc(-c2ccn(-c3ccc(OC)cc3[N+](=O)[O-])n2)ccc1C [Cmpd 22] | 100 | 100 | 100 | 85 | 0 |  |  |  |  | 
9 | CCc1cc(OC)ccc1-n1ccc(-c2ccc(C)c(CNC(=O)OC)c2)n1 [Cmpd 26] | 100 | 100 | 100 | 31 | 99 |  |  |  |  | 
10 | COC(=O)NCc1cc(-c2ccn(-c3ccc(F)cc3OC)n2)ccc1C [Cmpd 27] | 100 | 100 | 100 | 54 | 100 |  |  |  |  | 
11 | COC(=O)NCc1cc(-c2ccn(-c3ccc(C)cc3OC)n2)ccc1C [Cmpd 29] | 100 | 100 | 100 | 63 | 99 |  |  |  |  | 
12 | COC(=O)NCc1cc(-n2ccc(-c3ccc(F)cc3F)n2)ccc1C [Cmpd 30] | 100 | 100 | 100 | 0 | 100 |  |  |  |  | 
13 | COC(=O)NCc1cc(-c2ccn(-c3ccc(OC)cc3OCC#N)n2)ccc1C [Cmpd 32] | 100 | 100 | 100 | 66 | 94 |  |  |  |  | 
14 | COC(=O)NCc1cc(-c2ccn(-c3ccc(Cl)cc3O)n2)ccc1C [Cmpd 33] | 100 | 94 | 2 | 0 | 0 |  |  |  |  | 
15 | C#CCOc1cc(Cl)ccc1-n1ccc(-c2ccc(C)c(CNC(=O)OC)c2)n1 [Cmpd 34] | 100 | 100 | 100 | 91 | 100 |  |  |  |  | 
16 | COC(=O)NCc1cc(-c2ccn(-c3ccc(Cl)cc3OCC#N)n2)ccc1C [Cmpd 35] | 100 | 100 | 100 | 41 | 92 |  |  |  |  | 
17 | COC(=O)NCc1cc(-n2ccc(-c3ccc(Cl)cc3C)n2)ccc1C [Cmpd 36] |  |  |  |  |  | 100* % | 100* % | 100* % | 74* % | 100* %
18 | COC(=O)NCc1cc(-n2ccc(-c3ccc(F)cc3C)n2)ccc1C [Cmpd 37] |  |  |  |  |  | 100* % | 100* % | 100* % | 77* % | 95* %
19 | COC(=O)NCc1cc(-n2ccc(-c3ccc(Cl)cc3F)n2)ccc1C [Cmpd 39] |  |  |  |  |  | 100* % | 100* % | 100* % | 53* % | 99* %
20 | COC(=O)NCc1cc(-n2ccc(-c3ccc(F)cc3Cl)n2)ccc1C [Cmpd 40] |  |  |  |  |  | 100* % | 100* % | 100* % | 80* % | 100* %
21 | COC(=O)NCc1cc(-n2ccc(-c3ccc(C)cc3Cl)n2)ccc1C [Cmpd 41] |  |  |  |  |  | 100* % | 100* % | 100* % | 36* % | 100* %
22 | COC(=O)NCc1cc(-n2ccc(-c3ccc(C)cc3F)n2)ccc1C [Cmpd 42] |  |  |  |  |  | 100* % | 100* % | 99* % | 65* % | 100* %
23 | COC(=O)NCc1cc(-n2ccc(-c3ccc(C)nc3Cl)n2)ccc1C [Cmpd 43] |  |  |  |  |  | 100* % | 100* % | 87* % | 62* % | 98* %
24 | COC(=O)NCc1cc(-n2ccc(-c3ccc(Cl)nc3C)n2)ccc1C [Cmpd 44] |  |  |  |  |  | 100* % | 100* % | 92* % | 0* % | 98* %
